From US10738030B2, “Modulators of cystic fibrosis transmembrane conductance regulator” (Vertex Pharmaceuticals Incorporated, priority 2016, dated 2020)

Biological target: T1, F508del (Homo sapiens, UniProt P13569, DEL508-508)
T1 construct: expressed in transfected cells
Test: Membrane potential optical assay (FRET voltage-sensor dyes), identification of correction compounds
Type: cell-based
Settings: NIH3T3 cells stably expressing F508del, procedures described above; for Emax: maximum efficacy, read-out: Max Efficacy; for EC50: modulation of CFTR activity
Summary of the method: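 Correctors were applied for 16 hrs at 37° C. to F508del-expressing mouse NIH3T3 cells in serum-free medium; 27° C. incubation served as positive control. Channel activation by forskolin (10 μM) and genistein (20 μM) with gluconate bath drove Cl⁻ efflux, tracked as membrane depolarization via voltage-sensitive FRET dyes.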

T1 sequence (P13569 with tags, fused parts or gaps DEL508-508): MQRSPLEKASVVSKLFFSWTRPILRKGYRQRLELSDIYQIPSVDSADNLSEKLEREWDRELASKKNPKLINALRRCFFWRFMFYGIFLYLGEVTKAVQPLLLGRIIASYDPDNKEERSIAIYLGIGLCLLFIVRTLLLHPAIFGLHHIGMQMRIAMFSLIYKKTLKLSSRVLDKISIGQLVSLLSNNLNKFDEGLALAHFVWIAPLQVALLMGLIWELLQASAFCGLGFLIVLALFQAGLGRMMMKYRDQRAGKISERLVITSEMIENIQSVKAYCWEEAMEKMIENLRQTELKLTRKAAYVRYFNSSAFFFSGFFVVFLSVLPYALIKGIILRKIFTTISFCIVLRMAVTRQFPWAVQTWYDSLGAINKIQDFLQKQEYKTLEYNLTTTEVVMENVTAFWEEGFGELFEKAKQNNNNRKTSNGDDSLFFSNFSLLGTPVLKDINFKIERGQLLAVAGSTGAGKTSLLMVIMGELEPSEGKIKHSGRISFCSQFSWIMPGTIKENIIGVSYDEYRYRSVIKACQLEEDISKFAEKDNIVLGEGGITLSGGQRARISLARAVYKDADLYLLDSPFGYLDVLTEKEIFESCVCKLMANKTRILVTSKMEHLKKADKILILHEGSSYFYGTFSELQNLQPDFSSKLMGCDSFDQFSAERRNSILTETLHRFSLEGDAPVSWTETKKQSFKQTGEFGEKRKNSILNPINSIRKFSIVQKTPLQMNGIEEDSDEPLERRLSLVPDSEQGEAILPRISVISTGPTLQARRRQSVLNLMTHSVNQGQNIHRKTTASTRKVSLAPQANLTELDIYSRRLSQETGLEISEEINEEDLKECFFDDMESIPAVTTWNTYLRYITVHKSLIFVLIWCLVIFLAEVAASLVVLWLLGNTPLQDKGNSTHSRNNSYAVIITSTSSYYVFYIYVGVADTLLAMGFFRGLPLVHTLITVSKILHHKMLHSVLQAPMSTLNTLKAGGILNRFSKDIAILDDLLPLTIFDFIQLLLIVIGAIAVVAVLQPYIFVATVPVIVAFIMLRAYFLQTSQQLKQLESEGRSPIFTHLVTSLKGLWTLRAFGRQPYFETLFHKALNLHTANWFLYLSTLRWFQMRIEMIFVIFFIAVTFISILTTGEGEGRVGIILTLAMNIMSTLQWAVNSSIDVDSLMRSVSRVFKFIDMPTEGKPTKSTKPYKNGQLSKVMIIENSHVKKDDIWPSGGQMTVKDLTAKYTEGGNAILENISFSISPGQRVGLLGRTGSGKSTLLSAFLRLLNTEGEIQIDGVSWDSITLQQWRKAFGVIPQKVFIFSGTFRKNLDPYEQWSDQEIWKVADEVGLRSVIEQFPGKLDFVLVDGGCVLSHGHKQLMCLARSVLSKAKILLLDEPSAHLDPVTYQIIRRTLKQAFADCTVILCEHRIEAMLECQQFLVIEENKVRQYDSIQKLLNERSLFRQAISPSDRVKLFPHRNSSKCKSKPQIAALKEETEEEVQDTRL

Row | SMILES | Emax [%] | EC50 [µM]
1 | CCCC(C)Oc1nc(-c2cc(F)cc(OCC(C)C)c2)ccc1C(=O)NS(=O)(=O)c1cccc(N)n1 (centres unmarked) [Compound 56, N-[(6-amino-2-pyridyl)sulfonyl]-6-(3-fluoro-5-isobutoxy-phenyl)-2-(1-methylbutoxy)pyridine-3-carboxamide] | > 80 | < 3
2 | CC(C)Oc1ccc(-c2ccc(C(=O)NS(=O)(=O)c3cccc(N)n3)c(N(C)C(C)C)n2)cn1 [Compound 70, N-[(6-amino-2-pyridyl)sulfonyl]-6-(6-isopropoxy-3-pyridyl)-2-[isopropyl(methyl)amino]pyridine-3-carboxamide] | 30 to 80 | 3 to 10
3 | CCOc1nc(-c2cc(F)cc(OCC(C)C)c2)ccc1C(=O)NS(=O)(=O)c1cccc(N)n1 [Compound 30, N-[(6-amino-2-pyridyl)sulfonyl]-2-ethoxy-6-(3-fluoro-5-isobutoxy-phenyl)pyridine-3-carboxamide] | 30 to 80 | < 3
4 | CC(C)COc1cc(F)cc(-c2ccc(C(=O)NS(=O)(=O)c3cccc(N)n3)c(N(C)C)n2)c1 [Compound 19, N-[(6-amino-2-pyridyl)sulfonyl]-2-(dimethylamino)-6-(3-fluoro-5-isobutoxy-phenyl)pyridine-3-carboxamide] | > 80 | < 3
5 | CC#CCCOc1nc(-c2cc(F)cc(OCC(C)C)c2)ccc1C(=O)NS(=O)(=O)c1cccc(N)n1 [Compound 35, N-[(6-amino-2-pyridyl)sulfonyl]-6-(3-fluoro-5-isobutoxy-phenyl)-2-pent-3-ynoxy-pyridine-3-carboxamide] | 30 to 80 | < 3
6 | C=C(C)COc1nc(-c2cc(F)cc(OCC(C)C)c2)ccc1C(=O)NS(=O)(=O)c1cccc(N)n1 [Compound 49, N-[(6-amino-2-pyridyl)sulfonyl]-6-(3-fluoro-5-isobutoxy-phenyl)-2-(2-methylallyloxy)pyridine-3-carboxamide] | > 80 | < 3
7 | CC(C)COc1cc(F)cc(-c2ccc(C(=O)NS(=O)(=O)c3cccc(N)n3)c(N(C)CC(C)(C)C)n2)c1 [Compound 52, N-[(6-amino-2-pyridyl)sulfonyl]-2-[2,2-dimethylpropyl(methyl)amino]-6-(3-fluoro-5-isobutoxy-phenyl)pyridine-3-carboxamide] | > 80 | < 3
8 | CC(C)COc1cc(F)cc(-c2ccc(C(=O)NS(=O)(=O)c3cccc(N)n3)c(OCC(F)F)n2)c1 [Compound 38, N-[(6-amino-2-pyridyl)sulfonyl]-2-(2,2-difluoroethoxy)-6-(3-fluoro-5-isobutoxy-phenyl)pyridine-3-carboxamide] | 30 to 80 | 3 to 10
9 | CCN(CC)c1nc(-c2cc(F)cc(OCC(C)C)c2)ccc1C(=O)NS(=O)(=O)c1ccn[nH]1 [Compound 46, 2-(diethylamino)-6-(3-fluoro-5-isobutoxy-phenyl)-N-(1H-pyrazol-5-ylsulfonyl)pyridine-3-carboxamide] | 30 to 80 | < 3
10 | CC(C)COc1cc(F)cc(-c2ccc(C(=O)NS(=O)(=O)c3cccc(N)n3)c(OC(C)C(F)(F)F)n2)c1 (centres unmarked) [Compound 73, N-[(6-amino-2-pyridyl)sulfonyl]-6-(3-fluoro-5-isobutoxy-phenyl)-2-(2,2,2-trifluoro-1-methyl-ethoxy)pyridine-3-carboxamide] | 30 to 80 | < 3
11 | CC(C)COc1cc(F)cc(-c2ccc(C(=O)NS(=O)(=O)c3cccc(N)n3)c(OC(C(F)(F)F)C(F)(F)F)n2)c1 [Compound 33, N-[(6-amino-2-pyridyl)sulfonyl]-6-(3-fluoro-5-isobutoxy-phenyl)-2-[2,2,2-trifluoro-1-(trifluoromethyl)ethoxy]pyridine-3-carboxamide] | 30 to 80 | < 3
12 | CCC(CC)N(C)c1nc(-c2cc(F)cc(OCC(C)C)c2)ccc1C(=O)NS(=O)(=O)c1cccc(N)n1 [Compound 69, N-[(6-amino-2-pyridyl)sulfonyl]-2-[1-ethylpropyl(methyl)amino]-6-(3-fluoro-5-isobutoxy-phenyl)pyridine-3-carboxamide] | > 80 | < 3
13 | CC(C)=C(C)c1nc(-c2cc(F)cc(OCC(C)C)c2)ccc1C(=O)NS(=O)(=O)c1cccc(N)n1 [Compound 37, N-[(6-amino-2-pyridyl)sulfonyl]-2-(1,2-dimethylprop-1-enyl)-6-(3-fluoro-5-isobutoxy-phenyl)pyridine-3-carboxamide] | 30 to 80 | < 3
14 | CCOCC(C)Oc1nc(-c2cc(F)cc(OCC(C)C)c2)ccc1C(=O)NS(=O)(=O)c1cccc(N)n1 (centres unmarked) [Compound 71, N-[(6-amino-2-pyridyl)sulfonyl]-2-(2-ethoxy-1-methyl-ethoxy)-6-(3-fluoro-5-isobutoxy-phenyl)pyridine-3-carboxamide] | 30 to 80 | < 3
15 | CCC(Oc1nc(-c2cc(F)cc(OCC(C)C)c2)ccc1C(=O)NS(=O)(=O)c1cccc(N)n1)C(C)C (centres unmarked) [Compound 40, N-[(6-amino-2-pyridyl)sulfonyl]-2-(1-ethyl-2-methyl-propoxy)-6-(3-fluoro-5-isobutoxy-phenyl)pyridine-3-carboxamide] | 30 to 80 | < 3
16 | CC(C)COc1cc(F)cc(-c2ccc(C(=O)NS(=O)(=O)c3cccc(N)n3)c(N(C)[C@H](C)C(F)(F)F)n2)c1 [Compound 75, N-[(6-amino-2-pyridyl)sulfonyl]-6-(3-fluoro-5-isobutoxy-phenyl)-2-[methyl-[(1R)-2,2,2-trifluoro-1-methyl-ethyl]amino]pyridine-3-carboxamide] | > 80 | < 3
17 | COC[C@H](C)Oc1nc(-c2cc(F)cc(OCC(C)C)c2)ccc1C(=O)NS(=O)(=O)c1cccc(N)n1 [Compound 20, N-[(6-amino-2-pyridyl)sulfonyl]-6-(3-fluoro-5-isobutoxy-phenyl)-2-[(1S)-2-methoxy-1-methyl-ethoxy]pyridine-3-carboxamide] | 30 to 80 | < 3
18 | CCCNc1cccc(S(=O)(=O)NC(=O)c2ccc(-c3cc(F)cc(OCC(C)C)c3)nc2NCCC)n1 [Compound 39, 6-(3-fluoro-5-isobutoxy-phenyl)-2-(propylamino)-N-[[6-(propylamino)-2-pyridyl]sulfonyl]pyridine-3-carboxamide] | 30 to 80 | < 3
19 | COCC(C)Oc1nc(-c2cc(F)cc(OCC(C)C)c2)ccc1C(=O)NS(=O)(=O)c1cccc(N)n1 (centres unmarked) [Compound 23, N-[(6-amino-2-pyridyl)sulfonyl]-6-(3-fluoro-5-isobutoxy-phenyl)-2-(2-methoxy-1-methyl-ethoxy)pyridine-3-carboxamide] | 30 to 80 | 3 to 10
20 | CC(C)COc1cc(F)cc(-c2ccc(C(=O)NS(=O)(=O)c3ccn[nH]3)c(N(C)C(C)C)n2)c1 [Compound 79, 6-(3-fluoro-5-isobutoxy-phenyl)-2-[isopropyl(methyl)amino]-N-(1H-pyrazol-5-ylsulfonyl)pyridine-3-carboxamide] | > 80 | < 3
21 | CC(C)COc1cc(F)cc(-c2ccc(C(=O)NS(=O)(=O)c3cccc(N)n3)c(N(C)[C@@H](C)C(F)(F)F)n2)c1 [Compound 17, N-[(6-amino-2-pyridyl)sulfonyl]-6-(3-fluoro-5-isobutoxy-phenyl)-2-[methyl-[(1 S)-2,2,2-trifluoro-1-methyl-ethyl]amino]pyridine-3-carboxamide] | > 80 | < 3
22 | CC(C)COc1cc(F)cc(-c2ccc(C(=O)NS(=O)(=O)c3cccc(N)n3)c(OCC(F)(F)F)n2)c1 [Compound 48, N-[(6-amino-2-pyridyl)sulfonyl]-6-(3-fluoro-5-isobutoxy-phenyl)-2-(2,2,2-trifluoroethoxy)pyridine-3-carboxamide] | 30 to 80 | 3 to 10
23 | CC(C)COc1cc(F)cc(-c2ccc(C(=O)NS(=O)(=O)c3ccn[nH]3)c(NCCC(C)(C)C)n2)c1 [Compound 50, 2-(3,3-dimethylbutylamino)-6-(3-fluoro-5-isobutoxy-phenyl)-N-(1H-pyrazol-5-ylsulfonyl)pyridine-3-carboxamide] | 30 to 80 | 3 to 10
24 | CC(C)COc1cc(F)cc(-c2ccc(C(=O)NS(=O)(=O)c3cccc(N)n3)c(OCCCC(F)(F)F)n2)c1 [Compound 82, N-[(6-amino-2-pyridyl)sulfonyl]-6-(3-fluoro-5-isobutoxy-phenyl)-2-(4,4,4-trifluorobutoxy)pyridine-3-carboxamide] | 30 to 80 | < 3
25 | CCN(c1nc(-c2cc(F)cc(OCC(C)C)c2)ccc1C(=O)NS(=O)(=O)c1ccn[nH]1)C(C)C [Compound 16, 2-[ethyl(isopropyl)amino]-6-(3-fluoro-5-isobutoxy-phenyl)-N-(1H-pyrazol-5-ylsulfonyl)pyridine-3-carboxamide] | > 80 | < 3
26 | CC(C)COc1cc(F)cc(-c2ccc(C(=O)NS(=O)(=O)c3cccc(N)n3)c(OC(C(C)C)C(C)(C)C)n2)c1 (centres unmarked) [Compound 68, N-[(6-amino-2-pyridyl)sulfonyl]-6-(3-fluoro-5-isobutoxy-phenyl)-2-(1-isopropyl-2,2-dimethyl-propoxy)pyridine-3-carboxamide] | 30 to 80 | < 3
27 | COCCCOc1nc(-c2cc(F)cc(OCC(C)C)c2)ccc1C(=O)NS(=O)(=O)c1cccc(N)n1 [Compound 21, N-[(6-amino-2-pyridyl)sulfonyl]-6-(3-fluoro-5-isobutoxy-phenyl)-2-(3-methoxypropoxy)pyridine-3-carboxamide] | 30 to 80 | < 3
28 | CCCCCNc1nc(-c2cc(F)cc(OCC(C)C)c2)ccc1C(=O)NS(=O)(=O)c1cccc(N)n1 [Compound 84, N-[(6-amino-2-pyridyl)sulfonyl]-6-(3-fluoro-5-isobutoxy-phenyl)-2-(pentylamino)pyridine-3-carboxamide] | > 80 | 3 to 10
